Assay results from ChEMBL document CHEMBL3797190, “Development of 3,5-Dinitrobenzylsulfanyl-1,3,4-oxadiazoles and Thiadiazoles as Selective Antitubercular Agents Active Against Replicating and Nonreplicating Mycobacterium tuberculosis” (J Med Chem, 2016).
≈ marks a conversion by molar mass, not a printed value.

Assays:
[1] = tested on: Mycobacterium tuberculosis; experiment: Antimycobacterial activity against Mycobacterium tuberculosis CNCTC My 331/88 after 14 days by microdilution method; format: functional; conditions: CNCTC My 331/88, 336 h
Mycobacterium avium [2] = experiment: Antimycobacterial activity against Mycobacterium avium CNCTC My 330/88 after 14 days by microdilution method; format: functional; conditions: CNCTC My 330/88, 336 h
Mycobacterium kansasii [3] = experiment: Antimycobacterial activity against Mycobacterium kansasii CNCTC My 235/80 after 14 days by microdilution method; format: functional; conditions: CNCTC My 235/80, 336 h
Mycobacterium kansasii [4] = experiment: Antimycobacterial activity against Mycobacterium kansasii CNCTC My 6509/96 after 14 days by microdilution method; format: functional; conditions: CNCTC My 6509/96, 336 h
[5] = tested on: Mycobacterium tuberculosis; experiment: Antimycobacterial activity against Mycobacterium tuberculosis CNCTC My 331/88 after 21 days by microdilution method; format: functional; conditions: CNCTC My 331/88, 504 h
Mycobacterium avium [6] = experiment: Antimycobacterial activity against Mycobacterium avium CNCTC My 330/88 after 21 days by microdilution method; format: functional; conditions: CNCTC My 330/88, 504 h
Mycobacterium kansasii [7] = experiment: Antimycobacterial activity against Mycobacterium kansasii CNCTC My 235/80 after 21 days by microdilution method; format: functional; conditions: CNCTC My 235/80, 504 h
Mycobacterium kansasii [8] = experiment: Antimycobacterial activity against Mycobacterium kansasii CNCTC My 6509/96 after 21 days by microdilution method; format: functional; conditions: CNCTC My 6509/96, 504 h
Mycobacterium kansasii [9] = experiment: Antimycobacterial activity against Mycobacterium kansasii CNCTC My 235/80 after 7 days by microdilution method; format: functional; conditions: CNCTC My 235/80, 168 h
Mycobacterium kansasii [10] = experiment: Antimycobacterial activity against Mycobacterium kansasii CNCTC My 6509/96 after 7 days by microdilution method; format: functional; conditions: CNCTC My 6509/96, 168 h
[11] = Cytotoxicity against human HuH7 cells assessed as cell viability after 24 hrs by MTS assay; format: cell-based; conditions: Huh-7, 24 h
[12] = Cytotoxicity against human HuH7 cells assessed as cell viability after 48 hrs by MTS assay; format: cell-based; conditions: Huh-7, 48 h
HeLa [13] = experiment: Cytotoxicity against human HeLa cells assessed as cell viability after 24 hrs by MTS assay; format: cell-based
HeLa [14] = experiment: Cytotoxicity against human HeLa cells assessed as cell viability after 48 hrs by MTS assay; format: cell-based
[15] = Cytotoxicity against MDCK2-MDR1 cells assessed as cell viability after 24 hrs by MTS assay; format: ADME, cell-based; conditions: Canis lupus familiaris, MDCK-II
[16] = Cytotoxicity against MDCK2-MDR1 cells assessed as cell viability after 48 hrs by MTS assay; format: ADME, cell-based; conditions: Canis lupus familiaris, MDCK-II
[17] = Cytotoxicity against human HuH7 cells assessed as cell viability at 20 uM after 24 hrs by MTS assay; format: cell-based, Huh-7; conditions: read-out: Activity
[18] = Cytotoxicity against human HuH7 cells assessed as cell viability at 20 uM after 48 hrs by MTS assay; format: cell-based, Huh-7; conditions: read-out: Activity
[19] = Cytotoxicity against human HeLa cells assessed as cell viability at 20 uM after 24 hrs by MTS assay; format: cell-based; conditions: read-out: Activity
[20] = Cytotoxicity against human HeLa cells assessed as cell viability at 20 uM after 48 hrs by MTS assay; format: cell-based; conditions: read-out: Activity
[21] = Cytotoxicity against MDCK2-MDR1 cells assessed as cell viability at 20 uM after 24 hrs by MTS assay; format: ADME, cell-based, Canis lupus familiaris, MDCK-II; conditions: dog, read-out: Activity
[22] = Cytotoxicity against MDCK2-MDR1 cells assessed as cell viability at 20 uM after 48 hrs by MTS assay; format: ADME, cell-based, Canis lupus familiaris, MDCK-II; conditions: dog, read-out: Activity
Salmonella typhimurium [23] = experiment: Mutagenic activity in Salmonella typhimurium TA98 assessed as reverse mutation at 30 uM by Ames test; format: toxicity, organism-based; conditions: salmonella enterica subsp. enterica serovar typhimurium
Candida albicans = experiment: Antifungal activity against Candida albicans ATCC 44859 after 24 to 48 hrs by broth microdilution method; format: functional
Candida tropicalis = experiment: Antifungal activity against Candida tropicalis 156 after 24 to 48 hrs by broth microdilution method; format: functional
Pichia kudriavzevii = experiment: Antifungal activity against Candida krusei E28 after 24 to 48 hrs by broth microdilution method; format: functional
Nakaseomyces glabratus = experiment: Antifungal activity against Candida glabrata 20/I after 24 to 48 hrs by broth microdilution method; format: functional
Trichosporon asahii = experiment: Antifungal activity against Trichosporon asahii 1188 after 24 to 48 hrs by broth microdilution method; format: functional
Aspergillus fumigatus = experiment: Antifungal activity against Aspergillus fumigatus 231 after 24 to 48 hrs by broth microdilution method; format: functional
Lichtheimia corymbifera = experiment: Antifungal activity against Absidia corymbifera 272 after 24 to 48 hrs by broth microdilution method; format: functional
[24] = tested on: Trichophyton mentagrophytes; experiment: Antifungal activity against Trichophyton mentagrophytes 445 after 72 to 120 hrs by broth microdilution method; format: functional
Staphylococcus aureus [25] = experiment: Antibacterial activity against Staphylococcus aureus ATCC 6538 after 24 to 48 hrs by broth microdilution method; format: functional
Staphylococcus aureus [26] = experiment: Antibacterial activity against methicillin-resistant Staphylococcus aureus H 5996/08 after 24 to 48 hrs by broth microdilution method; format: functional
[27] = tested on: Staphylococcus epidermidis; experiment: Antibacterial activity against Staphylococcus epidermidis H 6966/08 after 24 to 48 hrs by broth microdilution method; format: functional
Enterococcus faecalis = experiment: Antibacterial activity against Enterococcus faecalis J 14365/08 after 24 to 48 hrs by broth microdilution method; format: functional
Escherichia coli = experiment: Antibacterial activity against Escherichia coli ATCC 8739 after 24 to 48 hrs by broth microdilution method; format: functional
Klebsiella pneumoniae [28] = experiment: Antibacterial activity against Klebsiella pneumoniae D 11750/08 after 24 to 48 hrs by broth microdilution method; format: functional
Klebsiella pneumoniae [29] = experiment: Antibacterial activity against ESBL producing Klebsiella pneumoniae J 14368/08 after 24 to 48 hrs by broth microdilution method; format: functional
Pseudomonas aeruginosa = experiment: Antibacterial activity against Pseudomonas aeruginosa ATCC 9027 after 24 to 48 hrs by broth microdilution method; format: functional
Hepatocyte = experiment: Cytotoxicity against primary human hepatocytes assessed as cell viability after 48 hrs by MTS assay; format: cell-based
[30] = Cytotoxicity against primary human hepatocytes assessed as cell viability at 20 uM after 48 hrs by MTS assay; format: cell-based, Hepatocyte; conditions: read-out: Activity
Salmonella typhimurium [31] = experiment: Mutagenic activity in Salmonella typhimurium TA100 assessed as reverse mutation at 30 uM by Ames test; format: toxicity, organism-based; conditions: salmonella enterica subsp. enterica serovar typhimurium

SMILES	MIC99 (Mycobacterium kansasii [8]) [µM]	IC50 [11] [µM]	IC50 (HeLa [13]) [µM]	IC50 [15] [µM]	viability at 24 h, 20 µM [17] [%]	viability at 48 h, 20 µM [18] [%]	viability at 24 h, 20 µM [19] [%]	viability at 48 h, 20 µM [20] [%]	viability at 24 h, 20 µM [21] [%]	viability at 48 h, 20 µM [22] [%]	MIC80 (Candida albicans) [µM]	MIC80 (Candida tropicalis) [µM]	MIC80 (Pichia kudriavzevii) [µM]	MIC80 (Nakaseomyces glabratus) [µM]	MIC80 (Trichosporon asahii) [µM]	MIC50 (Aspergillus fumigatus) [µM]	MIC50 (Lichtheimia corymbifera) [µM]	MIC50 [24] [µM]	MIC95 (Staphylococcus aureus [25]) [µM]	MIC95 (Staphylococcus aureus [26]) [µM]	further results
O=[N+]([O-])c1ccc(CSc2nnc(-c3ccccc3)o2)c([N+](=O)[O-])c1	8 (≈ 2.87 µg/mL)	> 20	> 20	> 20	99.5	92.8	97.7	113	69.6	73.3	> 125	> 125	> 125	> 125	> 125	> 125	> 125	> 125	> 125	> 125	MIC99 [1]: 2 µM (≈ 0.717 µg/mL); MIC99 (Mycobacterium avium [2]): > 16 µM; MIC99 (Mycobacterium kansasii [3]): 8 µM (≈ 2.87 µg/mL); MIC99 (Mycobacterium kansasii [4]): 8 µM (≈ 2.87 µg/mL); MIC99 [5]: 4 µM (≈ 1.43 µg/mL); MIC99 (Mycobacterium avium [6]): > 16 µM; MIC99 (Mycobacterium kansasii [7]): 16 µM (≈ 5.73 µg/mL); MIC99 (Mycobacterium kansasii [9]): 4 µM (≈ 1.43 µg/mL); MIC99 (Mycobacterium kansasii [10]): 2 µM (≈ 0.717 µg/mL); IC50 [12]: > 20 µM; IC50 (HeLa [14]): > 20 µM; IC50 [16]: > 20 µM; Activity (Salmonella typhimurium [23]): Toxic; MIC95 [27]: > 125 µM; MIC95 (Enterococcus faecalis): > 125 µM; MIC95 (Escherichia coli): > 125 µM; MIC95 (Klebsiella pneumoniae [28]): > 125 µM; MIC95 (Klebsiella pneumoniae [29]): > 125 µM; MIC95 (Pseudomonas aeruginosa): > 125 µM
O=[N+]([O-])c1cc(CSc2nnc(-c3ccc(Cl)cc3Cl)o2)cc([N+](=O)[O-])c1	0.5 (≈ 0.214 µg/mL)	> 20	> 20	> 20	95.7	37.7	76.4	39.9	106	27.9	> 125	> 125	> 125	> 125	> 125	> 125	> 125	> 125	> 125	> 125	MIC99 [1]: ≤ 0.03 µM; MIC99 (Mycobacterium avium [2]): 16 µM (≈ 6.84 µg/mL); MIC99 (Mycobacterium kansasii [3]): 0.5 µM (≈ 0.214 µg/mL); MIC99 (Mycobacterium kansasii [4]): 0.25 µM (≈ 0.107 µg/mL); MIC99 [5]: 0.06 µM (≈ 0.0256 µg/mL); MIC99 (Mycobacterium avium [6]): 32 µM (≈ 13.7 µg/mL); MIC99 (Mycobacterium kansasii [7]): 0.5 µM (≈ 0.214 µg/mL); MIC99 (Mycobacterium kansasii [9]): 0.125 µM (≈ 0.0534 µg/mL); MIC99 (Mycobacterium kansasii [10]): 0.125 µM (≈ 0.0534 µg/mL); IC50 (Hepatocyte): > 20 µM; viability at 48 h, 20 µM [30]: 81.1%; MIC95 [27]: > 125 µM; MIC95 (Enterococcus faecalis): > 125 µM; MIC95 (Escherichia coli): > 125 µM; MIC95 (Klebsiella pneumoniae [28]): > 125 µM; MIC95 (Klebsiella pneumoniae [29]): > 125 µM; MIC95 (Pseudomonas aeruginosa): > 125 µM
O=[N+]([O-])c1cc(CSc2nnc(-c3ccccc3)o2)cc([N+](=O)[O-])c1	2 (≈ 0.717 µg/mL)	> 20	> 20	> 20	99.3	73.8	88.3	33.2	72.6	42.4	> 125	> 125	> 125	> 125	> 125	> 125	> 125	> 125	> 125	> 125	IC50 [12]: > 20 µM; Activity (Salmonella typhimurium [31]): Non-toxic; Activity (Salmonella typhimurium [23]): Toxic; MIC95 [27]: > 125 µM; MIC95 (Enterococcus faecalis): > 125 µM; MIC95 (Escherichia coli): > 125 µM; MIC95 (Klebsiella pneumoniae [28]): > 125 µM; MIC95 (Klebsiella pneumoniae [29]): > 125 µM; MIC95 (Pseudomonas aeruginosa): > 125 µM
COc1ccc(-c2nnc(SCc3ccc([N+](=O)[O-])cc3[N+](=O)[O-])o2)cc1	16 (≈ 6.21 µg/mL)	> 20	> 20	> 20	85.1	77	89.9	106	87.9	78.5	> 125	> 125	> 125	> 125	> 125	> 125	> 125	> 125	> 125	> 125	MIC99 [1]: 0.5 µM (≈ 0.194 µg/mL); MIC99 (Mycobacterium avium [2]): 4 µM (≈ 1.55 µg/mL); MIC99 (Mycobacterium kansasii [3]): 8 µM (≈ 3.11 µg/mL); MIC99 (Mycobacterium kansasii [4]): 8 µM (≈ 3.11 µg/mL); MIC99 [5]: 1 µM (≈ 0.388 µg/mL); MIC99 (Mycobacterium avium [6]): 4 µM (≈ 1.55 µg/mL); MIC99 (Mycobacterium kansasii [7]): 16 µM (≈ 6.21 µg/mL); MIC99 (Mycobacterium kansasii [9]): 2 µM (≈ 0.777 µg/mL); MIC99 (Mycobacterium kansasii [10]): 2 µM (≈ 0.777 µg/mL); IC50 [12]: > 20 µM; IC50 (HeLa [14]): > 20 µM; IC50 [16]: > 20 µM; MIC95 [27]: > 125 µM; MIC95 (Enterococcus faecalis): > 125 µM; MIC95 (Escherichia coli): > 125 µM; MIC95 (Klebsiella pneumoniae [28]): > 125 µM; MIC95 (Klebsiella pneumoniae [29]): > 125 µM; MIC95 (Pseudomonas aeruginosa): > 125 µM
